Test results taken from ChEMBL document CHEMBL3745631, “Discovery of highly potent and selective Bruton's tyrosine kinase inhibitors: Pyridazinone analogs with improved metabolic stability” (Bioorg Med Chem Lett, 2016).

Legend:
[1] = target: Tyrosine-protein kinase ITK/TSK (Homo sapiens) (UniProt Q08881); test: Inhibition of ITK (unknown origin) at 1 uM
[2] = target: Mitogen-activated protein kinase 10 (Homo sapiens) (UniProt P53779); test: Inhibition of JNK3 (unknown origin) at 1 uM
Canis familiaris = test: Clearance in dog at 1 mg/kg, iv by LC-MS/MS analysis; format: ADME, organism-based, Canis lupus familiaris; details: in vivo
[3] = target: Tyrosine-protein kinase Blk (Homo sapiens) (UniProt P51451); test: Inhibition of Blk (unknown origin) at 1 uM
[4] = target: Serine/threonine-protein kinase MRCK alpha (Homo sapiens) (UniProt Q5VT25); test: Inhibition of MRCK alpha (unknown origin) at 1 uM
[5] = target: Casein kinase I isoform delta (Homo sapiens) (UniProt P48730); test: Inhibition of CK1 delta (unknown origin) at 1 uM
[6] = target: Calcium/calmodulin-dependent protein kinase kinase 1 (Homo sapiens) (UniProt Q8N5S9); test: Inhibition of CAMKK1 (unknown origin) at 1 uM
[7] = target: Casein kinase II subunit alpha (Homo sapiens) (UniProt P68400); test: Inhibition of CK2 alpha1 (unknown origin) at 1 uM
[8] = target: Mitogen-activated protein kinase kinase kinase 10 (Homo sapiens) (UniProt Q02779); test: Inhibition of MLK2 (unknown origin) at 1 uM
[9] = target: Serine/threonine-protein kinase Sgk2 (Homo sapiens) (UniProt Q9HBY8); test: Inhibition of SGK2 (unknown origin) at 1 uM
Salmonella typhimurium = test: Genotoxicity in Salmonella typhimurium TA98 by Ames test in absence of S9 fraction; format: toxicity, organism-based; details: salmonella enterica subsp. enterica serovar typhimurium
[10] = target: G protein-coupled receptor kinase 3 (Homo sapiens) (UniProt P35626); test: Inhibition of GRK3 (unknown origin) at 1 uM
[11] = target: Tyrosine-protein kinase Lyn (Homo sapiens) (UniProt P07948); test: Inhibition of LYN (unknown origin) at 1 uM
[12] = target: Fibroblast growth factor receptor 4 (Homo sapiens) (UniProt P22455); test: Inhibition of FGFR4 (unknown origin) at 1 uM
[13] = target: Dual specificity mitogen-activated protein kinase kinase 6 (Homo sapiens) (UniProt P52564); test: Inhibition of MKK6 (unknown origin) at 1 uM
[14] = target: Epidermal growth factor receptor (Homo sapiens) (UniProt P00533); test: Inhibition of EGFR (unknown origin) at 1 uM
[15] = target: SRSF protein kinase 2 (Homo sapiens) (UniProt P78362); test: Inhibition of SRPK2 (unknown origin) at 1 uM
[16] = target: Serine/threonine-protein kinase 25 (Homo sapiens) (UniProt O00506); test: Inhibition of YSK1 (unknown origin) at 1 uM
[17] = target: High affinity nerve growth factor receptor (Homo sapiens) (UniProt P04629); test: Inhibition of TrkA (unknown origin) at 1 uM
[18] = target: Focal adhesion kinase 1 (Homo sapiens) (UniProt Q05397); test: Inhibition of FAK (unknown origin) at 1 uM
[19] = target: Ephrin type-A receptor 1 (Homo sapiens) (UniProt P21709); test: Inhibition of EphA1 (unknown origin) at 1 uM
[20] = target: DNA-dependent protein kinase catalytic subunit (Homo sapiens) (UniProt P78527); test: Inhibition of DNA-PK (unknown origin) at 1 uM
[21] = target: Ribosomal protein S6 kinase alpha-3 (Homo sapiens) (UniProt P51812); test: Inhibition of Rsk2 (unknown origin) at 1 uM
[22] = target: Myosin light chain kinase (Homo sapiens) (UniProt Q32MK0); test: Inhibition of MYLK3 (unknown origin) at 1 uM
[23] = Oral bioavailability in mouse at 5 mg/kg by LC-MS/MS analysis; format: ADME, organism-based; details: in vivo
Homo sapiens = organism: Homo sapiens; test: Inhibition of PKA (unknown origin) at 1 uM
[24] = target: Inhibitor of nuclear factor kappa-B kinase subunit epsilon (Homo sapiens) (UniProt Q14164); test: Inhibition of IKKepsilon (unknown origin) at 1 uM
[25] = target: Tyrosine-protein kinase Fyn (Homo sapiens) (UniProt P06241); test: Inhibition of Fyn (unknown origin) at 1 uM
Mus musculus = test: Clearance in mouse at 1 mg/kg, iv by LC-MS/MS analysis; format: ADME, organism-based; details: in vivo
[26] = target: MAP kinase-activated protein kinase 3 (Homo sapiens) (UniProt Q16644); test: Inhibition of MAPKAPK3 (unknown origin) at 1 uM
[27] = target: Mitogen-activated protein kinase 12 (Homo sapiens) (UniProt P53778); test: Inhibition of p38 gamma (unknown origin) at 1 uM
[28] = target: BDNF/NT-3 growth factors receptor (Homo sapiens) (UniProt Q16620); test: Inhibition of TrkB (unknown origin) at 1 uM
[29] = target: RAC-alpha serine/threonine-protein kinase (Homo sapiens) (UniProt P31749); test: Inhibition of AKT1 (unknown origin) at 1 uM
Rattus norvegicus = test: Clearance in rat at 1 mg/kg, iv by LC-MS/MS analysis; format: ADME, organism-based; details: in vivo
[30] = target: Serine/threonine-protein kinase Nek4 (Homo sapiens) (UniProt P51957); test: Inhibition of NEK4 (unknown origin) at 1 uM
[31] = target: Serine/threonine-protein kinase PLK2 (Homo sapiens) (UniProt Q9NYY3); test: Inhibition of PLK2 (unknown origin) at 1 uM
[32] = target: Protein-tyrosine kinase 2-beta (Homo sapiens) (UniProt Q14289); test: Inhibition of FAK2 (unknown origin) at 1 uM
[33] = target: Mitogen-activated protein kinase 11 (Homo sapiens) (UniProt Q15759); test: Inhibition of p38 beta (unknown origin) at 1 uM
[34] = target: Serine/threonine-protein kinase TAO1 (Homo sapiens) (UniProt Q7L7X3); test: Inhibition of TAO1 (unknown origin) at 1 uM
[35] = target: Mitogen-activated protein kinase 14 (Homo sapiens) (UniProt Q16539); test: Inhibition of p38alpha (unknown origin) at 1 uM
[36] = target: Protein kinase C delta type (Homo sapiens) (UniProt Q05655); test: Inhibition of PKCdelta (unknown origin) at 1 uM
[37] = target: Calcium/calmodulin-dependent protein kinase type 1 (Homo sapiens) (UniProt Q14012); test: Inhibition of CaMKI (unknown origin) at 1 uM
[38] = target: Tyrosine-protein kinase FRK (Homo sapiens) (UniProt P42685); test: Inhibition of Frk (unknown origin) at 1 uM
[39] = target: Calcium/calmodulin-dependent protein kinase type II subunit beta (Homo sapiens) (UniProt Q13554); test: Inhibition of CaMK2 beta (unknown origin) at 1 uM
[40] = target: Platelet-derived growth factor receptor beta (Homo sapiens) (UniProt P09619); test: Inhibition of PDGFR_beta (unknown origin) at 1 uM
[41] = target: Serine/threonine-protein kinase WNK2 (Homo sapiens) (UniProt Q9Y3S1); test: Inhibition of WNK2 (unknown origin) at 1 uM

Sequence of High affinity nerve growth factor receptor (Homo sapiens) (P04629 33-796 limits assumed): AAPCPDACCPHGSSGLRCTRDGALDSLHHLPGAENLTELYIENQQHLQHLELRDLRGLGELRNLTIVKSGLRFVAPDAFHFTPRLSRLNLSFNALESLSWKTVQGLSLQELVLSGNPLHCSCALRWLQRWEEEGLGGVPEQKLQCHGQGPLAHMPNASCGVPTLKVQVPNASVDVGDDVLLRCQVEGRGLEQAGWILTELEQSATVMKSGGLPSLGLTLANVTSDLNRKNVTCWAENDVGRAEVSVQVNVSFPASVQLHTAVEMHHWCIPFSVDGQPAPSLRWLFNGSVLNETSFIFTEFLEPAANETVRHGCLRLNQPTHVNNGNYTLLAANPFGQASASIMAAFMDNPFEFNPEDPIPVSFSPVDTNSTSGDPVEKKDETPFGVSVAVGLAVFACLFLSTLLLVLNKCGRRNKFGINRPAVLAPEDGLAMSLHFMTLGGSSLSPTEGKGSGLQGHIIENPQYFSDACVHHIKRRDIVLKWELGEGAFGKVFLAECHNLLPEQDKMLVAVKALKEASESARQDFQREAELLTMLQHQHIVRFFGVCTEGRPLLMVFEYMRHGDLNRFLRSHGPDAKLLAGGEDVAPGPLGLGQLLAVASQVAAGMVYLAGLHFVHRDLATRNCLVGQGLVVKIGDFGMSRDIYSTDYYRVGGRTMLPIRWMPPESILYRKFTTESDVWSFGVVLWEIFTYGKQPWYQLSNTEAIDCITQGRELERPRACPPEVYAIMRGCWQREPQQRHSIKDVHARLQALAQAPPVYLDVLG
Sequence of Calcium/calmodulin-dependent protein kinase type II subunit beta (Homo sapiens) (Q13554 whole entry): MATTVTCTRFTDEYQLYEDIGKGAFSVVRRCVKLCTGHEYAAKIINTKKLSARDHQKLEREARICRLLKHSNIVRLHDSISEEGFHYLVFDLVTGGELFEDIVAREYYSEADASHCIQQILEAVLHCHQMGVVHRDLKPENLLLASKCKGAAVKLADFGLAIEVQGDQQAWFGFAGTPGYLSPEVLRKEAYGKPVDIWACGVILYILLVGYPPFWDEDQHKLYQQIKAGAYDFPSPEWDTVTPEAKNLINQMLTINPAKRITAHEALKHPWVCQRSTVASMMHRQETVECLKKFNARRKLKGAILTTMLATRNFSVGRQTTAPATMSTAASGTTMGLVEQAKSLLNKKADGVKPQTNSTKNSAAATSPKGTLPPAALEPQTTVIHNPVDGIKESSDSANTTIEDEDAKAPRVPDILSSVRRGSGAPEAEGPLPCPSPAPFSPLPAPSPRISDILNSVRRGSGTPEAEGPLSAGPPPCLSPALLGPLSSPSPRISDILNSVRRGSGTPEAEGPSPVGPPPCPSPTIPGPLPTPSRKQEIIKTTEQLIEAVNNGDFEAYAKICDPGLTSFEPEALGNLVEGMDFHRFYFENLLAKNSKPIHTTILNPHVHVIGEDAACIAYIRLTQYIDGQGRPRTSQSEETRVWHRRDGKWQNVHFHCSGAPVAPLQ
Sequence of Mitogen-activated protein kinase 12 (Homo sapiens) (P53778 whole entry): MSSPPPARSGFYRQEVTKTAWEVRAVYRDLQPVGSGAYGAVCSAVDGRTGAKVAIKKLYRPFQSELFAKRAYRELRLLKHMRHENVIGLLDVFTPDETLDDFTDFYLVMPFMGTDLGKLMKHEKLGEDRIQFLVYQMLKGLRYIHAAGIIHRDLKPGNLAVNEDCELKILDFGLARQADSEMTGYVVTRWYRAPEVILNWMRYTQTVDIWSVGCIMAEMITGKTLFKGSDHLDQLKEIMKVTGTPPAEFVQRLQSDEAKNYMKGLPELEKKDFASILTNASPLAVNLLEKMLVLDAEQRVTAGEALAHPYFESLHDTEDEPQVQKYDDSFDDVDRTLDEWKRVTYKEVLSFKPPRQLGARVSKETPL
Sequence of SRSF protein kinase 2 (Homo sapiens) (P78362 whole entry, looked up): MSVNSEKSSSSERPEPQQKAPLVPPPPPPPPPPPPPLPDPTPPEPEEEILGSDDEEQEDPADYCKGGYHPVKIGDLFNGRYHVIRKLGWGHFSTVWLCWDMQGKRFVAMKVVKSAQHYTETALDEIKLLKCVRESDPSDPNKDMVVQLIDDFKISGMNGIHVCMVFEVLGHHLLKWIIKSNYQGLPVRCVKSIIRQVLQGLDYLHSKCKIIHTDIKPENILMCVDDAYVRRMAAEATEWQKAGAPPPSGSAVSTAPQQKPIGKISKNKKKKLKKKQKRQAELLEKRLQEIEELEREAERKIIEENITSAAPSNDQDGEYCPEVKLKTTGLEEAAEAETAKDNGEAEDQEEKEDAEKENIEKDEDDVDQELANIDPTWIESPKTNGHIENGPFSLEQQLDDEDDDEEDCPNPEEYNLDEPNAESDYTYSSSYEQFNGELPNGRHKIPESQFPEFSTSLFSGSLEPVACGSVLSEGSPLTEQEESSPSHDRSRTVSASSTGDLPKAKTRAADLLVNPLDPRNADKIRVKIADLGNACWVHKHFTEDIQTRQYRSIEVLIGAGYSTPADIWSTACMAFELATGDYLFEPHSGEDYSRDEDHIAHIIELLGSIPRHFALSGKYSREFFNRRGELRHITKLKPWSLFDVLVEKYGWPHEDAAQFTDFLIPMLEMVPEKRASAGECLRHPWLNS
Sequence of Focal adhesion kinase 1 (Homo sapiens) (Q05397 2-1052 limits assumed): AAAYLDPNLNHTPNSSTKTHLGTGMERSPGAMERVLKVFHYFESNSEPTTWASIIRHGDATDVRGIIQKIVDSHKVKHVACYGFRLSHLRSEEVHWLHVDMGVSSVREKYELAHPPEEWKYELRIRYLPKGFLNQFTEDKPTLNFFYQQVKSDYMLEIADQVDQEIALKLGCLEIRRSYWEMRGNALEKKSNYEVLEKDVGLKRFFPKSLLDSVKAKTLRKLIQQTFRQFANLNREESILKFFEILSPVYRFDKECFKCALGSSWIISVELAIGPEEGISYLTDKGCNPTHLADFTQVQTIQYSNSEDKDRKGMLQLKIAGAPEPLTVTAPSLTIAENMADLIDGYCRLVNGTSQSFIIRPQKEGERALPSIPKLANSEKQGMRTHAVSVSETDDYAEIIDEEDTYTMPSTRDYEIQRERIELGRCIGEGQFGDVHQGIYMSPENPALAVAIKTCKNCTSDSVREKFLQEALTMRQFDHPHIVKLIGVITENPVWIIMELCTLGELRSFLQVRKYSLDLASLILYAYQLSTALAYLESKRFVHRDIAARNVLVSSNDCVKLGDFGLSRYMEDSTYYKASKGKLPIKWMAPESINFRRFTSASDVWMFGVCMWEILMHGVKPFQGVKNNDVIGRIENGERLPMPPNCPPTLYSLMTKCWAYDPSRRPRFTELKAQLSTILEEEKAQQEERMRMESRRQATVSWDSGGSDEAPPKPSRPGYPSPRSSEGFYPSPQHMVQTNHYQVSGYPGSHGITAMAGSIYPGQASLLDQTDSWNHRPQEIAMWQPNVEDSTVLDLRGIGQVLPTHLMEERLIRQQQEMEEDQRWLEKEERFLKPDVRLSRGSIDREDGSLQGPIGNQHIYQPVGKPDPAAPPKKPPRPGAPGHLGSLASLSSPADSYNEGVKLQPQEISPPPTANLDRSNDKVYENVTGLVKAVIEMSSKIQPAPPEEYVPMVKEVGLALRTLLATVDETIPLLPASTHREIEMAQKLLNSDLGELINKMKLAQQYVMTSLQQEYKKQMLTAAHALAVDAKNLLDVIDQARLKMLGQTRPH
Sequence of Calcium/calmodulin-dependent protein kinase type 1 (Homo sapiens) (Q14012 whole entry, looked up): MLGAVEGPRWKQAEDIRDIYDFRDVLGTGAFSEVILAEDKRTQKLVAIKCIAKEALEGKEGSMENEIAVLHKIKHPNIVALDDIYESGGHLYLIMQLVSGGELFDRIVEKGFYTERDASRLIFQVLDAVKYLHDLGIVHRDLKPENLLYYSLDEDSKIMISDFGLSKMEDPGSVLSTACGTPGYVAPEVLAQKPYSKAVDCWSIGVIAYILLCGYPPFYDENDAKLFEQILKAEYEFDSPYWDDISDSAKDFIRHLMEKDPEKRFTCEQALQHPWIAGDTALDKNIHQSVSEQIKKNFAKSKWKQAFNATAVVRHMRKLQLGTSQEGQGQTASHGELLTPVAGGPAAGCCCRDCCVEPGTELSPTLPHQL
Sequence of Mitogen-activated protein kinase 11 (Homo sapiens) (Q15759 whole entry): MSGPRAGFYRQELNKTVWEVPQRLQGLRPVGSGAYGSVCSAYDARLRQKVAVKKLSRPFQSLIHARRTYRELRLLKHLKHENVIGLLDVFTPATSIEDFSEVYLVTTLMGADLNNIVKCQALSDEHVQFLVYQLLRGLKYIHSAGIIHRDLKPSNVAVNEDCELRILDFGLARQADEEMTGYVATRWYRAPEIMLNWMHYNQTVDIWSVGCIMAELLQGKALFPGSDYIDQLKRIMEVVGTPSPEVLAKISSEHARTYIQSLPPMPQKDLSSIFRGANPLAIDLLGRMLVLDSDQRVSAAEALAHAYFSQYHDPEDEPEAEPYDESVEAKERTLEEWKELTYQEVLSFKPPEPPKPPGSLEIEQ
Sequence of Calcium/calmodulin-dependent protein kinase kinase 1 (Homo sapiens) (Q8N5S9 whole entry, looked up): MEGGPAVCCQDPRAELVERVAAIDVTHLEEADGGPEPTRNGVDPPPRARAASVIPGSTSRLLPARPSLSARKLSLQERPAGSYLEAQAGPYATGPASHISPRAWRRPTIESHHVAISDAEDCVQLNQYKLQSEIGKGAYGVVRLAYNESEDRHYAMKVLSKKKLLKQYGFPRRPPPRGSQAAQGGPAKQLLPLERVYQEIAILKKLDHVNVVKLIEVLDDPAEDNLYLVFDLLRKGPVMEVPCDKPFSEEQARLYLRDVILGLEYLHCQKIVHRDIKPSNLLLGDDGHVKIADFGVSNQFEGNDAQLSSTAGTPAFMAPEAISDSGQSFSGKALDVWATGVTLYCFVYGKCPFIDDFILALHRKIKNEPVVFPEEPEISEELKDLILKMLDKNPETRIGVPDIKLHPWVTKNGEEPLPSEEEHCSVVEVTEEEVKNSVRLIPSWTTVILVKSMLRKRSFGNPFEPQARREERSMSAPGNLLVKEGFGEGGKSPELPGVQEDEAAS

Cc1c(-c2cc(Nc3cc4n(n3)CCN(C)C4)c(=O)[nH]n2)ccc(F)c1NC(=O)c1cc2ccccc2s1
inhibition [1]: 38.3% | inhibition [2]: 10.3% | clearance (Canis familiaris): 14 mL/min/kg | inhibition [3]: 10.6% | inhibition [4]: -4.5% | inhibition [5]: 4.7% | inhibition [6]: -5.4% | inhibition [7]: 0.8% | inhibition [8]: 7.3% | inhibition [9]: -2.3% | Activity (Salmonella typhimurium): Non-toxic | inhibition [10]: 0.7% | inhibition [11]: 23.1% | inhibition [12]: -3.5% | inhibition [13]: 3% | inhibition [14]: -5.5% | inhibition [15]: -2% | inhibition [16]: -3.4% | inhibition [17]: -8% | inhibition [18]: 3.6% | inhibition [19]: 2.2% | inhibition [20]: 8.5% | inhibition [21]: 1.9% | inhibition [22]: 3% | bioavailability [23]: 34% | inhibition (Homo sapiens): -4.8% | inhibition [24]: -5.8% | inhibition [25]: 7% | clearance (Mus musculus): 43 mL/min/kg | inhibition [26]: 6.9% | inhibition [27]: 6.5% | inhibition [28]: -3.6% | inhibition [29]: 2.5% | clearance (Rattus norvegicus): 5 mL/min/kg | inhibition [30]: 1% | inhibition [31]: 5.8% | inhibition [32]: 4% | inhibition [33]: 8.7% | inhibition [34]: -3.8% | inhibition [35]: 1% | inhibition [36]: -8% | inhibition [37]: 6.3% | inhibition [38]: -0.8% | inhibition [39]: -2.2% | inhibition [40]: 8% | inhibition [41]: -7.5%
